Reference: patent EP0908457B1, “3-(1,2-benzisothiazol- and isoxazol-5-Y1)-2,4(1H,3H)-pyrimidinedione or thione and 3-(1,2-benzisothiazol- and isoxazol-5-y1)-4(3H)-pyrimidinone or thione herbicidal agents” (BASF AKTIENGESELLSCHAFT, priority 1997, dated 1999)

What was measured:
[1] = system: Cyperus serotinus, Rottb.; experiment: Preemergence weed control under flooded paddy conditions, CYPSE (Flatsedge); assay type: in vivo; conditions: preemergence, rated three to four weeks after treatment
[2] = system: Oryza sativa, (L.) Tebonnet; experiment: Rice tolerance to post-transplant applications under flooded paddy conditions (Example 187), ORYSAT (Rice, Tebonnet); conditions: rated three to four weeks after treatment
[3] = system: Cyperus iria; experiment: Preemergence weed control under flooded paddy conditions, CYPIR (Rice Flatsedge); assay type: in vivo; conditions: preemergence, flooded paddy, rated three to four weeks after treatment
[4] = system: Echinochloa oryzoides (Ard.) Fritsch.; experiment: Preemergence weed control under flooded paddy conditions, ECHORC (Watergrass (Calif.)); assay type: in vivo; conditions: preemergence, flooded paddy, rated three to four weeks after treatment
[5] = system: Monochoria vaginalis, Presl.; experiment: Preemergence weed control under flooded paddy conditions, MOOVA (Monochoria); assay type: in vivo; conditions: preemergence, flooded paddy, rated three to four weeks after treatment
[6] = system: Sagittaria pygmaea, L.; experiment: Preemergence weed control under flooded paddy conditions, SAGPY (Arrowhead (Pygmaea)); assay type: in vivo; conditions: preemergence, flooded paddy, rated three to four weeks after treatment
Note: meaning of each grade not given here.

CCSCCOC(=O)c1nsc2ccc(-n3c(=O)cc(C(F)(F)F)n(C)c3=O)cc12 [Example 385, 1,2-Benzisothiazole-3-carboxylic acid, 5-[3,6-dihydro-3-methyl-2,6-dioxo-4-(trifluoromethyl)-1(2H)-pyrimidinyl]-, 2-(ethylthio)ethyl ester]
herbicidal effect rating, CYPSE ([1]; Rate 0.0320 kg/ha): 6.0
herbicidal effect rating, CYPSE ([1]; Rate 0.0620 kg/ha): 6.0
herbicidal effect rating, CYPSE ([1]; Rate 0.1250 kg/ha): 7.0
herbicidal effect rating, CYPSE ([1]; Rate 0.2500 kg/ha): 7.0
herbicidal effect rating ORYSAT ([2]; Rate 0.0320 kg/ha): 3.0
herbicidal effect rating ORYSAT ([2]; Rate 0.0620 kg/ha): 5.0
herbicidal effect rating ORYSAT ([2]; Rate 0.1250 kg/ha): 7.0
herbicidal effect rating ORYSAT ([2]; Rate 0.2500 kg/ha): 7.0
herbicidal effect rating, CYPIR ([3]; Rate 0.0320 kg/ha): 4.0
herbicidal effect rating, CYPIR ([3]; Rate 0.0620 kg/ha): 6.0
herbicidal effect rating, CYPIR ([3]; Rate 0.1250 kg/ha): 6.0
herbicidal effect rating, CYPIR ([3]; Rate 0.2500 kg/ha): 9.0
herbicidal effect rating, ECHORC ([4]; Rate 0.0320 kg/ha): 0.0
herbicidal effect rating, ECHORC ([4]; Rate 0.0620 kg/ha): 3.0
herbicidal effect rating, ECHORC ([4]; Rate 0.1250 kg/ha): 3.0
herbicidal effect rating, ECHORC ([4]; Rate 0.2500 kg/ha): 6.0
herbicidal effect rating, MOOVA ([5]; Rate 0.0320 kg/ha): 9.0
herbicidal effect rating, MOOVA ([5]; Rate 0.0620 kg/ha): 9.0
herbicidal effect rating, MOOVA ([5]; Rate 0.1250 kg/ha): 9.0
herbicidal effect rating, MOOVA ([5]; Rate 0.2500 kg/ha): 9.0
herbicidal effect rating, SAGPY ([6]; Rate 0.0320 kg/ha): 0.0
herbicidal effect rating, SAGPY ([6]; Rate 0.0620 kg/ha): 0.0
herbicidal effect rating, SAGPY ([6]; Rate 0.1250 kg/ha): 9.0
herbicidal effect rating, SAGPY ([6]; Rate 0.2500 kg/ha): 9.0

C=C(Cl)COC(=O)c1nsc2ccc(-n3c(=O)cc(C(F)(F)F)n(C)c3=O)cc12 [Example 386, 1,2-Benzisothiazole-3-carboxylic acid, 5-[3,6-dihydro-3-methyl-2,6-dioxo-4-(trifluoromethyl)-1(2H)-pyrimidinyl]-, 2-chloroallyl ester]
herbicidal effect rating, CYPSE ([1]; Rate 0.0320 kg/ha): 3.0
herbicidal effect rating, CYPSE ([1]; Rate 0.0620 kg/ha): 7.0
herbicidal effect rating, CYPSE ([1]; Rate 0.1250 kg/ha): 7.0
herbicidal effect rating, CYPSE ([1]; Rate 0.2500 kg/ha): 7.0
herbicidal effect rating ORYSAT ([2]; Rate 0.0320 kg/ha): 5.0
herbicidal effect rating ORYSAT ([2]; Rate 0.0620 kg/ha): 5.0
herbicidal effect rating ORYSAT ([2]; Rate 0.1250 kg/ha): 5.0
herbicidal effect rating ORYSAT ([2]; Rate 0.2500 kg/ha): 5.0
herbicidal effect rating, CYPIR ([3]; Rate 0.0320 kg/ha): 7.0
herbicidal effect rating, CYPIR ([3]; Rate 0.0620 kg/ha): 9.0
herbicidal effect rating, CYPIR ([3]; Rate 0.1250 kg/ha): 9.0
herbicidal effect rating, CYPIR ([3]; Rate 0.2500 kg/ha): 9.0
herbicidal effect rating, ECHORC ([4]; Rate 0.0320 kg/ha): 0.0
herbicidal effect rating, ECHORC ([4]; Rate 0.0620 kg/ha): 3.0
herbicidal effect rating, ECHORC ([4]; Rate 0.1250 kg/ha): 4.0
herbicidal effect rating, ECHORC ([4]; Rate 0.2500 kg/ha): 5.0
herbicidal effect rating, MOOVA ([5]; Rate 0.0320 kg/ha): 9.0
herbicidal effect rating, MOOVA ([5]; Rate 0.0620 kg/ha): 9.0
herbicidal effect rating, MOOVA ([5]; Rate 0.1250 kg/ha): 9.0
herbicidal effect rating, MOOVA ([5]; Rate 0.2500 kg/ha): 9.0
herbicidal effect rating, SAGPY ([6]; Rate 0.0320 kg/ha): 4.0
herbicidal effect rating, SAGPY ([6]; Rate 0.0620 kg/ha): 7.0
herbicidal effect rating, SAGPY ([6]; Rate 0.1250 kg/ha): 9.0
herbicidal effect rating, SAGPY ([6]; Rate 0.2500 kg/ha): 9.0

CC(=O)NCCOC(=O)c1nsc2ccc(-n3c(=O)cc(C(F)(F)F)n(C)c3=O)cc12 [Example 387, 1,2-Benzisothiazole-3-carboxylic acid, 5-[3,6-dihydro-3-methyl-2,6-dioxo-4-(trifluoromethyl)-1(2H)-pyrimidinyl]-, 2-acetamidoethyl ester]
herbicidal effect rating, CYPSE ([1]; Rate 0.0320 kg/ha): 2.0
herbicidal effect rating, CYPSE ([1]; Rate 0.0620 kg/ha): 5.0
herbicidal effect rating, CYPSE ([1]; Rate 0.1250 kg/ha): 5.0
herbicidal effect rating, CYPSE ([1]; Rate 0.2500 kg/ha): 5.0
herbicidal effect rating ORYSAT ([2]; Rate 0.0320 kg/ha): 0.0
herbicidal effect rating ORYSAT ([2]; Rate 0.0620 kg/ha): 0.0
herbicidal effect rating ORYSAT ([2]; Rate 0.1250 kg/ha): 2.0
herbicidal effect rating ORYSAT ([2]; Rate 0.2500 kg/ha): 2.0
herbicidal effect rating, CYPIR ([3]; Rate 0.0320 kg/ha): 0.0
herbicidal effect rating, CYPIR ([3]; Rate 0.0620 kg/ha): 5.0
herbicidal effect rating, CYPIR ([3]; Rate 0.1250 kg/ha): 6.0
herbicidal effect rating, CYPIR ([3]; Rate 0.2500 kg/ha): 7.0
herbicidal effect rating, ECHORC ([4]; Rate 0.0320 kg/ha): 0.0
herbicidal effect rating, ECHORC ([4]; Rate 0.0620 kg/ha): 0.0
herbicidal effect rating, ECHORC ([4]; Rate 0.1250 kg/ha): 0.0
herbicidal effect rating, ECHORC ([4]; Rate 0.2500 kg/ha): 3.0
herbicidal effect rating, MOOVA ([5]; Rate 0.0320 kg/ha): 4.0
herbicidal effect rating, MOOVA ([5]; Rate 0.0620 kg/ha): 9.0
herbicidal effect rating, MOOVA ([5]; Rate 0.1250 kg/ha): 9.0
herbicidal effect rating, MOOVA ([5]; Rate 0.2500 kg/ha): 9.0
herbicidal effect rating, SAGPY ([6]; Rate 0.0320 kg/ha): 3.0
herbicidal effect rating, SAGPY ([6]; Rate 0.0620 kg/ha): 4.0
herbicidal effect rating, SAGPY ([6]; Rate 0.1250 kg/ha): 5.0
herbicidal effect rating, SAGPY ([6]; Rate 0.2500 kg/ha): 6.0

CCCCCCCOC(=O)c1nsc2ccc(-n3c(=O)cc(C(F)(F)F)n(C)c3=O)cc12 [Example 388, 1,2-Benzisothiazole-3-carboxylic acid, 5-[3,6-dihydro-3-methyl-2,6-dioxo-4-(trifluoromethyl)-1(2H)-pyrimidinyl]-, heptyl ester]
herbicidal effect rating, CYPSE ([1]; Rate 0.0320 kg/ha): 6.0
herbicidal effect rating, CYPSE ([1]; Rate 0.2500 kg/ha): 6.0
herbicidal effect rating ORYSAT ([2]; Rate 0.0320 kg/ha): 3.0
herbicidal effect rating ORYSAT ([2]; Rate 0.0620 kg/ha): 4.0
herbicidal effect rating ORYSAT ([2]; Rate 0.1250 kg/ha): 4.0
herbicidal effect rating ORYSAT ([2]; Rate 0.2500 kg/ha): 6.0
herbicidal effect rating, CYPIR ([3]; Rate 0.0320 kg/ha): 4.0
herbicidal effect rating, CYPIR ([3]; Rate 0.0620 kg/ha): 7.0
herbicidal effect rating, CYPIR ([3]; Rate 0.1250 kg/ha): 7.0
herbicidal effect rating, CYPIR ([3]; Rate 0.2500 kg/ha): 9.0
herbicidal effect rating, ECHORC ([4]; Rate 0.0320 kg/ha): 0.0
herbicidal effect rating, ECHORC ([4]; Rate 0.0620 kg/ha): 2.0
herbicidal effect rating, ECHORC ([4]; Rate 0.1250 kg/ha): 5.0
herbicidal effect rating, ECHORC ([4]; Rate 0.2500 kg/ha): 6.0
herbicidal effect rating, MOOVA ([5]; Rate 0.0320 kg/ha): 9.0
herbicidal effect rating, MOOVA ([5]; Rate 0.0620 kg/ha): 9.0
herbicidal effect rating, MOOVA ([5]; Rate 0.1250 kg/ha): 9.0
herbicidal effect rating, MOOVA ([5]; Rate 0.2500 kg/ha): 9.0
herbicidal effect rating, SAGPY ([6]; Rate 0.0320 kg/ha): 3.0
herbicidal effect rating, SAGPY ([6]; Rate 0.0620 kg/ha): 4.0
herbicidal effect rating, SAGPY ([6]; Rate 0.1250 kg/ha): 4.0
herbicidal effect rating, SAGPY ([6]; Rate 0.2500 kg/ha): 7.0

COCCOCCOC(=O)c1nsc2ccc(-n3c(=O)cc(C(F)(F)F)n(C)c3=O)cc12 [Example 389, 1,2-Benzisothiazole-3-carboxylic acid, 5-[3,6-dihydro-3-methyl-2,6-dioxo-4-(trifluoromethyl)-1(2H)-pyrimidinyl]-, 2-(2-methoxyethoxy)ethyl ester]
herbicidal effect rating, CYPSE ([1]; Rate 0.0320 kg/ha): 0.0
herbicidal effect rating, CYPSE ([1]; Rate 0.1250 kg/ha): 7.0
herbicidal effect rating, CYPSE ([1]; Rate 0.2500 kg/ha): 8.0
herbicidal effect rating ORYSAT ([2]; Rate 0.0320 kg/ha): 3.0
herbicidal effect rating ORYSAT ([2]; Rate 0.0620 kg/ha): 4.0
herbicidal effect rating ORYSAT ([2]; Rate 0.1250 kg/ha): 4.0
herbicidal effect rating ORYSAT ([2]; Rate 0.2500 kg/ha): 5.0
herbicidal effect rating, CYPIR ([3]; Rate 0.0320 kg/ha): 5.0
herbicidal effect rating, CYPIR ([3]; Rate 0.0620 kg/ha): 5.0
herbicidal effect rating, CYPIR ([3]; Rate 0.1250 kg/ha): 7.0
herbicidal effect rating, CYPIR ([3]; Rate 0.2500 kg/ha): 9.0
herbicidal effect rating, ECHORC ([4]; Rate 0.0320 kg/ha): 3.0
herbicidal effect rating, ECHORC ([4]; Rate 0.0620 kg/ha): 4.0
herbicidal effect rating, ECHORC ([4]; Rate 0.1250 kg/ha): 4.0
herbicidal effect rating, ECHORC ([4]; Rate 0.2500 kg/ha): 7.0
herbicidal effect rating, MOOVA ([5]; Rate 0.0320 kg/ha): 7.0
herbicidal effect rating, MOOVA ([5]; Rate 0.0620 kg/ha): 9.0
herbicidal effect rating, MOOVA ([5]; Rate 0.1250 kg/ha): 9.0
herbicidal effect rating, MOOVA ([5]; Rate 0.2500 kg/ha): 9.0
herbicidal effect rating, SAGPY ([6]; Rate 0.0320 kg/ha): 3.0
herbicidal effect rating, SAGPY ([6]; Rate 0.0620 kg/ha): 4.0
herbicidal effect rating, SAGPY ([6]; Rate 0.1250 kg/ha): 7.0
herbicidal effect rating, SAGPY ([6]; Rate 0.2500 kg/ha): 9.0
